According to patent publication EP0603755A2, “Cephalosporin salts and processes for their preparation” (HOECHST AKTIENGESELLSCHAFT, priority 1992, dated 1994):
Each block holds one compound with its values, some of them ahead of it.

Tests used:
[1] = Pharmacokinetics after intramuscular administration; antibiotic content in blood/serum by agar diffusion test; assay type: in vivo, Hund
Description: Zur Bestimmung der pharmakokinetischen Eigenschaften der erfindungsgemäßen Cephalosporin-Articainsalze wurden unter […] Untersuchungen an Mäusen und Hunden durchgeführt. Die […] und die korrespondierenden Alkalisalze der Cephalosporine wurden in therapeutisch üblichen Dosierungen intramuskulär verabreicht. Zu festgelegten Zeitpunkten nach der Injektion des Antibiotikums wurden den Versuchstieren Blutproben entnommen und der Antibiotika-Gehalt im Blut bzw. Serum mit Hilfe des Agardiffusionstestes bestimmt. Die pharmakokinetischen […] Computerprogramms ermittelt.

[2] = Qualitative solubility of the salts (observed on crystallisation from water); details: in water, partly relative to the salt of the other Articain enantiomer

SMILES: CCCNC(C)C(=O)Nc1c(C)csc1C(=O)OC.CON=C(C(=O)NC1C(=O)N2C(C(=O)O)=C(COC(N)=O)CSC12)c1ccco1 (single isomer, unassigned; (+)) [(+) Articain-Cefuroximsalz]
Löslichkeit [2]: schwerlösliche

SMILES: CCCNC(C)C(=O)Nc1c(C)csc1C(=O)OC.CON=C(C(=O)NC1C(=O)N2C(C(=O)O)=C(COC(C)=O)CSC12)c1csc(N)n1 (single isomer, unassigned; (+)) [(+)-Articain-Cefotaxim, ( +)-Articain-Cefotaximsalz]
Halbwertszeit ([1]; dog, in vivo, im): 4,1 Stunden

Other lines, results leading:

Halbwertszeit ([1]; Hund, intramuscular application, blood/serum level by agar diffusion test): 6,6 Stunden
SMILES: CCCCOC(=O)c1scc(C)c1NC(=O)C(C)NCCC.CO/N=C(\C(=O)N[C@@H]1C(=O)N2C(C(=O)O)=C(COC(C)=O)CS[C@H]12)c1csc(N)n1 [Beispiel 10, Cefotaximsalz von (+ )n-Butyl 4-methyl-3(2-n-propylaminopropionamido) thiophen-2-carboxylat]

Löslichkeit [2]: leichter löslich in Wasser
SMILES: CCCNC(C)C(=O)Nc1c(C)csc1C(=O)OC.CON=C(C(=O)NC1C(=O)N2C(C(=O)O)=CCSC12)c1csc(N)n1 (single isomer, unassigned; (-)) [(-)-Articain-Ceftizoximsalz]

half-life ([1]; dog, im, Hund, intramuscular application, blood/serum level by agar diffusion test, read-out: Halbwertszeit (converted)): 48 min
SMILES: CO/N=C(\C(=O)N[C@@H]1C(=O)N2C(C(=O)O)=C(COC(C)=O)CS[C@H]12)c1csc(N)n1 [Cefotaxim, reference compound]
